Publication PMC12040169 (PLOS Biology, 2025)

Assay: in vitro
Settings: human, hela cells, % viability

First: CC(Cc1cccs1)NC(=O)c1cc(-c2ccccn2)n[nH]1 (stereo not drawn) [CBK282446]
Second: Cc1nc(-c2ccccc2F)sc1C(=O)Nc1ccccn1 [CBK287979]
The viability at 28.5 h, 10 µM of the first is higher: 104% for the first, 98.8% for the second.

Going from Cc1nc(-c2ccncc2)c2c(C)nn(-c3ccc(F)cc3)c2n1 [CBK288545] to CC(C)C(=O)Nc1cc2cccnc2nc1-c1ccc(N(C)C)cc1 [CBK073650], the viability at 28.5 h, 10 µM rises from 89.2% to 90.6%.

Going from COc1ccc(CNC(=O)N(CCc2ccccc2)CC(C)(C)CN)cc1 [CBK000463C] to CCNC(=O)C1(Cc2ccc(-c3cccs3)cc2)CCN(C(=O)Cc2ccccc2)CC1 [CBK285795], the viability at 28.5 h, 10 µM falls from 119% to 115%.

Going from Cc1nc2nc(N)nn2c(C)c1CCC(=O)OCc1cccc(C#N)c1 [CBK306083] to COCCN(Cc1cnn(C)c1)Cc1cc(O)c2cc(C)ccc2n1 [CBK306723], the viability at 28.5 h, 10 µM falls from 88.1% to 86.1%.

Compared with CNCCOCC(O)CSc1ccccc1 (stereo not drawn) [CBK262704], CN(C)CCn1c(C(=O)O)cc2ccccc21 [CBK268234C] is higher in viability at 28.5 h, 10 µM: 100% for the first, 110% for the second.

Going from CCCc1[nH]nc(O)c1Cc1ccc(C(C)(C)C)cc1 [CBK075028] to Nc1cc(=O)[nH]c(=O)n1Cc1ccc(Cl)cc1 [CBK288002], the viability at 28.5 h, 10 µM rises from 79.5% to 112%.

Going from O=C(COc1nc2ccccc2s1)N1N=CCC1c1ccccc1 (stereo not drawn) [CBK270188] to O=C1CCCC[C@@H]2[C@@H](N1)[C@H](c1ccccc1)CN2Cc1ccnc2ccccc12 [CBK286280], the viability at 28.5 h, 10 µM rises from 92.7% to 102%.

First: COCCN1CCN(C(=O)[C@@H]2Cc3c[nH]c4cccc(c34)[C@H](CC(C)C)N2)CC1 [CBK289419]
Second: O=C(c1cccc(O)c1)N1CCN(Cc2cn3ccsc3n2)CC1 [CBK305275]
The viability at 28.5 h, 10 µM of the first is higher: 84.5% for the first, 76% for the second.

Compared with O=C(Nc1ccc(Cl)cc1C(=O)NCCN1CCOCC1)c1ccc(Cl)cc1Cl [CBK265749], COc1ccc(CC(=O)NCC(c2cccs2)N2CCOCC2)cc1F (stereo not drawn) [CBK305618] is lower in viability at 28.5 h, 10 µM: 105% for the first, 99.5% for the second.

Going from COc1ccc(-c2ccc(OC)cc2C(=O)Nc2ccc3c(c2)OCC(=O)N3)cc1 [CBK285821] to COc1ccc(-n2nc3cc(C)c(NC(=O)c4ccc(-c5ccc([N+](=O)[O-])cc5OC)o4)cc3n2)cc1 [CBK263766], the viability at 28.5 h, 10 µM falls from 101% to 99.3%.

First: O=[N+]([O-])c1cc(S(=O)(=O)N2CCCCCC2)ccc1NCc1ccccc1 [CBK262804]
Second: NS(=O)(=O)c1ccc(Nc2c(C(=O)O)cc([N+](=O)[O-])cc2[N+](=O)[O-])cc1 [CBK261319]
The viability at 28.5 h, 10 µM of the first is lower: 88.3% for the first, 93% for the second.

First: COc1cc(OC)nc(N2CCN(c3nccnc3NS(=O)(=O)C3CC3)CC2)n1 [CBK048698]
Second: COc1ccc(-n2nnc(C(=O)N3CCCCC3C(N)=O)c2C)cc1 (stereo not drawn) [CBK305551]
The viability at 28.5 h, 10 µM of the first is higher: 109% for the first, 98.1% for the second.

First: CCn1ncc2c1CCCC2NC1CCN(c2ccccc2F)C1=O (stereo not drawn) [CBK305279]
Second: CCn1cc(CN2C3CCC2CC(O)(c2cccc(F)c2)C3)c(C)n1 (stereo not drawn) [CBK282755]
The viability at 28.5 h, 10 µM of the first is higher: 108% for the first, 80.9% for the second.

Compared with Oc1c(Cl)cc(Cl)cc1/C=N/c1ccc(-c2nc3ccc(/N=C/c4cc(Cl)cc(Cl)c4O)cc3[nH]2)cc1 [CBK261660], Cc1ccc(S(=O)(=O)N(C)CC(=O)O/N=C(\N)c2cccnc2)cc1 [CBK266717] is higher in viability at 28.5 h, 10 µM: 93.4% for the first, 110% for the second.

First: O=[N+]([O-])c1cc(F)ccc1Oc1cccc2c1CCCC2 [CBK002559]
Second: O=C(Nc1cccc(F)c1)C(c1ccccc1)N1CCOCC1 (stereo not drawn) [CBK269191]
The viability at 28.5 h, 10 µM of the first is higher: 93.5% for the first, 84.5% for the second.

Going from CCC(=O)NNC(=O)c1cc(O)nc2ccccc12 [CBK263495] to Cn1c(=O)c(C(N)=O)c(O)c2ccccc21 [CBK027440], the viability at 28.5 h, 10 µM falls from 98.1% to 78.6%.

Compared with Cc1ccc2c(c1)N(CCO)C(C)(C)CC2C (stereo not drawn) [CBK006567], CCN(CCO)C(=O)C(C)Oc1cc(C)ccc1Cl (stereo not drawn) [CBK306019] is lower in viability at 28.5 h, 10 µM: 92.1% for the first, 86.6% for the second.

Going from CC(=O)N1CC2(CCN(Cc3nccn3C(C)C)CC2)CC1C(=O)O (stereo not drawn) [CBK306587] to Cc1ccc(-n2c(SCC(=O)N3CCC(C(=O)O)CC3)nc3ccccc3c2=O)cc1C [CBK297540], the viability at 28.5 h, 10 µM falls from 93.7% to 81.4%.

Going from C1=CCC(CN(CCCn2ccnc2)Cc2cccnc2)CC1 (stereo not drawn) [CBK283216] to O=C(c1cnn2cccnc12)N1CCc2[nH]c3ccccc3c2C1 [CBK281874], the viability at 28.5 h, 10 µM rises from 88.6% to 93%.

First: CCCn1nc(C)c(-c2cncn2CC(C)N2CCCCC2)c1C (stereo not drawn) [CBK281802]
Second: CSc1nc(-n2nc(C)cc2C)c2c3c(sc2n1)COC(C)(C)C3 [CBK268906]
The viability at 28.5 h, 10 µM of the first is higher: 95.7% for the first, 89.7% for the second.

Compared with Brc1csc(CNc2ccc3cn[nH]c3c2)c1 [CBK021216], COC(=O)c1ccsc1NS(=O)(=O)c1ccc(Br)cc1 [CBK039058] is higher in viability at 28.5 h, 10 µM: 75.1% for the first, 94.1% for the second.

Compared with COc1cc(NC(=O)CC2NC3CCCCC3NC2=O)cc(OC)c1OC (stereo not drawn) [CBK270012], CC(=O)Nc1cccc(C(=O)OCC(=O)N2CCCC2)c1 [CBK306395] is higher in viability at 28.5 h, 10 µM: 84.5% for the first, 91.6% for the second.

Same assay, conditions: human, hela cells, % viability, bulk resorufin, single well

Clc1cccc(N2CCNCC2)n1 [CBK001379] gave a viability at 28.5 h, 10 µM of 95.3%.
